Assay type in all cases: biochemical, mice
The test system of one assay is IMM potential. Kind of assay: Rhodamine 123 (Rh123) uptake counterscreen.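 Further: isolated mitochondria respiring on glutamate plus malate in sucrose MOPS-Tris buffer at pH 7.4, Rh123 added with the organelles, compounds tested across a twofold dilution series.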
The subject of the next assay is mtPTP. Kind of assay: Calcium retention capacity (CRC) assay on isolated mitochondria. Particulars: 12.5 μM compound.
Assay [1] relates to Mitochondrial Permeability Transition Pore. The assay can be described thus: Mitochondrial swelling absorbance assay.
Procedure: Mitochondrial Swelling (Hit Validation, Confirmatory Assay, Concentration-Response, AID No. 720722)
Assay buffer: 250 mM sucrose, 10 mM MOPS-Tris, 0.01 mM EGTA-Tris, 1.0 mM phosphoric acid-Tris, pH 7.4 • Solution 1. 5.0 mM glutamate and 2.5 mM malate in Assay buffer. • Solution 2. 80-120 μM CaCl2) depending on mitochondrial activity in Solution 1. Note: Concentration of Ca^2+ in the assay is dependent upon the activity of the isolated mitochondria which is determined via a calcium titration just before each screening batch. A Ca^2+ concentration is used that allows for the arrival at a 2:1 window at the 20 minute time period. • Solution 3. 1% DMSO in Solution 2. • Solution 4. 2.0 mM EGTA-Tris, pH 7.4 in Solution 3. • Solution 5. 0.5 mg/mL mitochondria in Assay Buffer.
Protocol Summary: • 1. Freshly isolate mitochondria, prepare solutions according to the recipes in the reagent section • 2. Dispense 100 μL of Solution 4 to Columns 1-2 and Solution 3 Columns 11-12 (positive and negative controls, respectively) of the 96-well clear assay plate (Falcon 353072) • 3. Dispense 200 μL of Solution 1 to Row A Columns 3-10. • 4. Next, dispense 100 μL of Solution 3 to Rows B-H Columns 3-10. • 5. Add 4 μL of 5 mM test compounds in DMSO to Row A Columns 3-10, perform 1:2 serial dilutions Row A to H Columns 3-10. • 6. Finally, dispense 100 μL of Solution 5 in all wells. The reaction starts. • 7. Keep the plate at room temperature for 20 minutes and then read absorbance at 540 nm on MultiSkan EX, Thermo Scientific.
Concentration-Response Assay to Identify Compounds that Inhibit Mitochondrial Swelling (SAR Assay AID No. 743359)
Assay buffer: 250 mM sucrose, 10 mM MOPS-Tris, 0.01 mM EGTA-Tris, 1.0 mM phosphoric acid, pH 7.4 • Solution 1. 5.0 mM glutamate and 2.5 mM malate in Assay Buffer. • Solution 2. 100-120 μM CaCl2) depending on mitochondrial activity in Solution 1. Note: Concentration of Ca^2+ in the assay is dependent upon the activity of the isolated mitochondria which is determined via a calcium titration just before each screening batch. A Ca^2+ concentration is used that allows for the arrival at a 2:1 window at the 20 minute time period. • Solution 3. 1% DMSO in Solution 2. • Solution 4. 2.0 mM EGTA-Tris, pH 7.4 in Solution 3. • Solution 5. 0.5 mg/mL mitochondria in Assay Buffer.
Protocol Summary: • 1. Freshly isolate mitochondria, prepare solutions according to the recipes in the Reagent Section. • 2. Dispense 100 μL of Solution 4 to Columns 1-2 and Solution 3 Columns 11-12 (positive and negative controls, respectively) of the 96-well clear assay plate (Falcon 353072). • 3. Dispense 200 μL of Solution 1 to Row A Columns 3-10. • 4. Next, dispense 100 μL of Solution 3 to Rows B-H Columns 3-10. • 5. Add 4 μL of 5 mM test compounds in DMSO to Row A Columns 3-10, perform 1:2 serial dilutions Row A to H Columns 3-10. • 6. Finally, dispense 100 μL of Solution 5 in all wells. The reaction starts. • 7. Keep the plate at room temperature for 20 minutes and then read absorbance at 540 nm on MultiSkan EX, Thermo Scientific.
The mark [2] stands for this setting: Table 1, read-out: Rh123 uptake (EC50).
Setting [3] is: Table 2, average of >3 experiments ± SEM.

Like-named read-outs stand apart in the source and are kept apart here. Some results are limits rather than exact numbers.

Procedure for IMM potential: Assay buffer: 250 mM sucrose, 10 mM MOPS-Tris, 0.01 mM EGTA-Tris, 1.0 mM phosphoric acid-Tris, pH 7.4 • Solution 1. 5.0 mM glutamate and 2.5 mM malate in Assay Buffer. • Solution 2. 1% DMSO in Solution 1. • Solution 3. 0.8 μM FCCP (the stock 40 μM in DMSO) in Solution 1. • Solution 4. 0.5 mg/mL mitochondria and 0.8 μM Rh123 in Assay Buffer.
Protocol Summary: • 1. Freshly isolate mitochondria, prepare solutions according to the recipes in the Reagent Section. • 2. Dispense 100 μL of Solution 3 to Columns 1-2 and Solution 2 Columns 11-12 (positive and negative controls, respectively) of the 96-well black assay plate (Falcon 353376). • 3. Dispense 200 μL of Solution 1 to Row A Columns 3-10. • 4. Next, dispense 100 μL of Solution 2 to Rows B-H Columns 3-10. • 5. Add 4 μL of 10 mM test compounds in DMSO to Row A Columns 3-10, perform 1:2 serial dilutions Row A to H Columns 3-10. • 6. Finally, dispense 100 μL of Solution 4 in all wells. The reaction starts. • 7. Keep the plate at room temperature for 5 minutes and then read fluorescence (excitation 485 nm, emission 538 nm) on Fluoroskan Ascent FL, Thermo Scientific.
Concentration-Response Counterscreen Assay to Identify Compounds that Prevent Mitochondrial Swelling Via Interference with the IMM Potential (SAR Assay AID No. 743361)
Assay buffer: 250 mM sucrose, 10 mM MOPS-Tris, 0.01 mM EGTA-Tris, 1.0 mM phosphoric acid-Tris, pH 7.4 • Solution 1. 5.0 glutamate and 2.5 mM malate in Assay Buffer. • Solution 2. 1% DMSO in Solution 1. • Solution 3. 0.8 μM FCCP (the stock 40 μM in DMSO) in Solution 1. • Solution 4. 0.5 mg/mL mitochondria and 0.8 μM Rh123 in Assay Buffer.
Procedure for mtPTP: Assay buffer: 250 mM sucrose, 10 mM MOPS-Tris, 0.01 mM EGTA-Tris, 1.0 mM phosphoric acid-Tris, pH 7.4. • Solution 1. 10 mM glutamate and 5 mM malate in Assay buffer. • Solution 2. 1% DMSO in Solution 2. • Solution 3. 0.5 mg/mL mitochondria and 1.0 μM Calcium Green-5N in Assay Buffer. • Solution 4. 0.25 mM CaCl2).
Protocol Summary: • 1. Freshly isolate mitochondria, prepare solutions according to the recipes in the Reagent Section. • 2. Dispense 100 μL of Solution 2 to Columns 1-2 (negative control) of the 96-well black assay plate (Falcon 353376). • 3. Dispense 200 μL of Solution 1 to Row A Columns 3-12. • 4. Next, dispense 100 μL of Solution 2 to Rows B-H Columns 3-12. • 5. Add 4 μL of 5 mM test compounds in DMSO to Row A Columns 3-12, perform 1:2 serial dilutions Row A to H Columns 3-12. • 6. Finally, dispense 100 μL of Solution 3 in all wells. • 7. Experiment starts. Read Calcium Green-5N fluorescence (excitation 485 nm, emission 538 nm) and perform a train of 4 μL Solution 4 additions with Fluoroskan Ascent FL, Thermo Scientific.

In the case of `COc1ccc(Cl)cc1C(=O)Nc1ccc(CCN2CCCCC2)cc1`, the EC50 in the assay on IMM potential (setting [2]) is greater than 100 µM; in assay [1] (Table 1, average ± SEM), 2.68 ± 0.166 µM. Moreover, the “Calcium Retention Capacity (CRC/CRC0 at 12.5 μM)” value in the assay with mtPTP (Table 1, average ± SEM) came out at 1.51 ± 0.01.
Regarding `COc1ccc(Cl)cc1C(=O)Nc1ccc(CN2CCN(C(=O)OC(C)(C)C)CC2)cc1`, the EC50 in the assay on IMM potential (setting [2]) is greater than 100 µM; in assay [1] (Table 1, average ± SEM), 9.24 ± 0.86 µM. Also, the “Calcium Retention Capacity (CRC/CRC0 at 12.5 μM)” value in the assay on mtPTP (Table 1, average ± SEM) stood at 1.33 ± 0.06.
Take `COc1ccc(Cl)cc1C(=O)Nc1ccc(CN2CCOCC2)cc1`: the EC50 with IMM potential (setting [2]) was greater than 100 µM; in assay [1] (Table 1, average ± SEM), 8.12 ± 0.388 µM. In the assay on mtPTP (Table 1, average ± SEM), the “Calcium Retention Capacity (CRC/CRC0 at 12.5 μM)” value is 1.20 ± 0.00.
As to `COc1ccc(Cl)cc1C(=O)Nc1ccc(CN2CCCCC2)cc1`, the EC50 with IMM potential (setting [2]) is greater than 100 µM; in assay [1] (Table 1, average ± SEM), 1.54 ± 0.101 µM. For the same compound, in the assay on mtPTP (Table 1, average ± SEM), the “Calcium Retention Capacity (CRC/CRC0 at 12.5 μM)” value was determined as 1.80 ± 0.00.
The matching figures for `COc1ccc(Cl)cc1C(=O)Nc1cccc(CN2CCNCC2)c1`: greater than 100 µM, 3.27 ± 0.15 µM and 1.52 ± 0.06.
For the compound `O=C(Nc1ccc(CN2CCCCC2)cc1)c1cccc(OCc2ccccc2)c1`, the EC50 stood at 51.2 µM in the assay on IMM potential (setting [2]) and 0.885 ± 0.116 µM in assay [1] (Table 1, average ± SEM). In addition, in the assay on mtPTP (Table 1, average ± SEM), the “Calcium Retention Capacity (CRC/CRC0 at 12.5 μM)” value was 3.54 ± 0.28.
The matching figures for `O=C(Nc1ccc(CN2CCCCC2)cc1)c1cccc(Cl)c1`: greater than 100 µM, 16 ± 1.58 µM and 1.16 ± 0.02.
For `O=S(=O)(Nc1ccc(CCN2CCCCC2)cc1)c1cccc(Cl)c1` the same measures were greater than 100 µM, 38.7 ± 3.67 µM and 1.12 ± 0.02.
In the case of `CN1CCN(c2ccc(NS(=O)(=O)c3cccc(Cl)c3)cc2)CC1`, the EC50 with IMM potential (setting [2]) was greater than 100 µM; in assay [1] (Table 1, average ± SEM), 37.5 ± 3.63 µM. Besides, the “Calcium Retention Capacity (CRC/CRC0 at 12.5 μM)” value in the assay with mtPTP (Table 1, average ± SEM) came out at 1.05 ± 0.03.
Turning to `CN1CCN(Cc2ccc(NS(=O)(=O)c3cc(Cl)cc(Cl)c3)cc2)CC1`, the EC50 in the assay with IMM potential (setting [2]) was greater than 100 µM; in assay [1] (Table 1, average ± SEM) it was 29.2 ± 2.1 µM. Further, the “Calcium Retention Capacity (CRC/CRC0 at 12.5 μM)” value in the assay with mtPTP (Table 1, average ± SEM) is reported as 1.10 ± 0.02.
Turning to `O=S(=O)(Nc1ccc(CCN2CCCCC2)cc1)c1cc(Cl)cc(Cl)c1`, the EC50 with IMM potential (setting [2]) is greater than 100 µM; in assay [1] (Table 1, average ± SEM), 25.6 ± 1.8 µM. In addition, the “Calcium Retention Capacity (CRC/CRC0 at 12.5 μM)” value in the assay on mtPTP (Table 1, average ± SEM) turned out to be 1.17 ± 0.04.
On to `O=S(=O)(Nc1ccc(CCN2CCNCC2)cc1)c1cc(Cl)cc(Cl)c1`, for which the half-maximal effective concentration (EC50) with IMM potential (setting [2]) was greater than 100 µM; in assay [1] (Table 1, average ± SEM) it was 21.4 ± 0.983 µM. The “Calcium Retention Capacity (CRC/CRC0 at 12.5 μM)” value in the assay with mtPTP (Table 1, average ± SEM) is 1.09 ± 0.05.
For `CN1CCN(c2ccc(NS(=O)(=O)c3cc(Cl)cc(Cl)c3)cc2)CC1` the same measures were greater than 100 µM, 21.7 ± 1.08 µM and 1.11 ± 0.03.
Take `O=S(=O)(Nc1ccc(CCN2CCCCC2)cc1)c1ccc(F)c(Cl)c1`: the EC50 was greater than 100 µM in the assay on IMM potential (setting [2]) and 29.1 ± 2.92 µM in assay [1] (Table 1, average ± SEM). Besides, in the assay with mtPTP (Table 1, average ± SEM), the “Calcium Retention Capacity (CRC/CRC0 at 12.5 μM)” value was found to be 1.07 ± 0.03.
Regarding `COc1ccc(NC(=O)c2cc(-c3cccc(O)c3)on2)cc1Cl`, the EC50 in the assay on IMM potential (setting [2]) was greater than 100 µM; in assay [1] (Table 1, average ± SEM) it was 0.189 ± 0.028 µM. In the assay on mtPTP (Table 1, average ± SEM), the “Calcium Retention Capacity (CRC/CRC0 at 12.5 μM)” value is reported as 3.26 ± 0.32.
Take `CC1(C)CCN(CCCC(=O)c2ccc(Br)cc2)CC1`: the EC50 in the assay on IMM potential (setting [2]) is greater than 100 µM; in assay [1] (Table 1, average ± SEM) it was 18 ± 1.33 µM. Moreover, in the assay on mtPTP (Table 1, average ± SEM), the “Calcium Retention Capacity (CRC/CRC0 at 12.5 μM)” value is on record as 1.10 ± 0.05.
Consider `CC(C)C1CCN(CCCC(=O)c2ccc(Br)cc2)CC1`, for which the concentration for a half-maximal effect (EC50) with IMM potential (setting [2]) was 64.8 ± 4.19 µM; in assay [1] (Table 1, average ± SEM), 10 ± 7.78 µM. For the same compound, the “Calcium Retention Capacity (CRC/CRC0 at 12.5 μM)” value in the assay with mtPTP (Table 1, average ± SEM) is on record as 1.16 ± 0.05.
For `C[C@@H]1CCC[C@H](C)N1CCCC(=O)c1ccc(Br)cc1` the same measures were greater than 100 µM, 46 ± 1.36 µM and 1.01 ± 0.02.
`O=C(Nc1ccc(CN2CCCCC2)cc1)c1cc(F)cc(OCc2ccccc2)c1` [Entry 1]: the EC50 stood at 58.6 ± 2.9 µM in the assay on IMM potential (Table 2, average of >3 experiments ± SEM, read-out: Rh123 Assay EC50) and 0.521 ± 0.046 µM in assay [1] (setting [3]). Further, in the assay on mtPTP (setting [3]), the “Calcium Retention Capacity (CRC/CRC0 at 12.5 μM)” value was 10.8 ± 0.6.

These data come from patent US20240067600A1, “SMALL MOLECULE INHIBITORS OF THE MITOCHONDRIAL PERMEABILITY TRANSITION PORE (mtPTP)” (UNIVERSITY OF KANSAS, priority 2014, published 2024).
